In ChEMBL document CHEMBL1909046, “DrugMatrix in vitro pharmacology data” one finds IC50 and Ki data, which are given here for 15 compounds.

In series [1] the target is T1, Alpha-1A adrenergic receptor (Rattus norvegicus, UniProt P43140).
T1 sequence (P43140 whole entry): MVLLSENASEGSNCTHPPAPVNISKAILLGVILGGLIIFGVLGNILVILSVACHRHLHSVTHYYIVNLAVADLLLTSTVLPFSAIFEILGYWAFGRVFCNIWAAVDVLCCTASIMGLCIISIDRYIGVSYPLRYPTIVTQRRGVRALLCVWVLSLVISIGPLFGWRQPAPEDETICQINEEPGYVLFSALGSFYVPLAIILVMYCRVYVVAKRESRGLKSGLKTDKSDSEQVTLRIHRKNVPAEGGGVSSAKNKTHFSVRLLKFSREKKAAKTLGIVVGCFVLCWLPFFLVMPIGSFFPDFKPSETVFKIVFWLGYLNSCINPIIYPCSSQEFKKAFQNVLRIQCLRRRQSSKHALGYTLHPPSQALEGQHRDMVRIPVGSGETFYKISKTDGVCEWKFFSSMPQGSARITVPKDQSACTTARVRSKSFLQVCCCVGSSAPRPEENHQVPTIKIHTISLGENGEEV
Kind of series: DRUGMATRIX: Alpha-1A adrenergic receptor radioligand binding (ligand: prazosin). The settings on record: Not Active = under 50% inhibition at 10 µM. It counts as cell membranes, Wistar, Submaxillary gland, Membrane.

Series [2] concerns the target T2, Alpha-2C adrenergic receptor (Homo sapiens, UniProt P18825).
T2 sequence (P18825 whole entry): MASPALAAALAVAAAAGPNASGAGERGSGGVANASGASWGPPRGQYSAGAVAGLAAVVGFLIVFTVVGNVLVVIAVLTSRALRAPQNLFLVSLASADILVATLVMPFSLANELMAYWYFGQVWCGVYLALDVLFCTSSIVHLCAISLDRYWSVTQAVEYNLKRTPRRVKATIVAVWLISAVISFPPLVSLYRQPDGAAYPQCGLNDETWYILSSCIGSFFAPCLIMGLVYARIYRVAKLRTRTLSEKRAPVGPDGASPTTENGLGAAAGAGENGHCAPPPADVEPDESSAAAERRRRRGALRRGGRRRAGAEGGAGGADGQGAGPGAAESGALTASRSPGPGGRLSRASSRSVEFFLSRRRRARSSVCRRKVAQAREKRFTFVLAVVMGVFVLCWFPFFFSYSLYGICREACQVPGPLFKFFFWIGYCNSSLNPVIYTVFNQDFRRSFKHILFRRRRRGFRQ
Kind of series: DRUGMATRIX: Adrenergic Alpha-2C radioligand binding (ligand: [3H] MK-912). It is filed as cell membranes, Sf9, Membrane.

In series [3] the target is Prostaglandin G/H synthase 1 (Homo sapiens, UniProt P23219). The series can be described thus: biochemical. It counts as tissue-based, Platelet.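 Also: inhibition of COX-1 enzyme activity, with arachidonic acid supplied as substrate; in other assays of this panel Not Active means under 50% inhibition at 10 µM.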
Series [4] has as its target T3, Muscarinic acetylcholine receptor M2 (Homo sapiens, UniProt P08172). Also: in other assays of this panel Not Active means under 50% inhibition at 10 µM.
T3 sequence (P08172 whole entry): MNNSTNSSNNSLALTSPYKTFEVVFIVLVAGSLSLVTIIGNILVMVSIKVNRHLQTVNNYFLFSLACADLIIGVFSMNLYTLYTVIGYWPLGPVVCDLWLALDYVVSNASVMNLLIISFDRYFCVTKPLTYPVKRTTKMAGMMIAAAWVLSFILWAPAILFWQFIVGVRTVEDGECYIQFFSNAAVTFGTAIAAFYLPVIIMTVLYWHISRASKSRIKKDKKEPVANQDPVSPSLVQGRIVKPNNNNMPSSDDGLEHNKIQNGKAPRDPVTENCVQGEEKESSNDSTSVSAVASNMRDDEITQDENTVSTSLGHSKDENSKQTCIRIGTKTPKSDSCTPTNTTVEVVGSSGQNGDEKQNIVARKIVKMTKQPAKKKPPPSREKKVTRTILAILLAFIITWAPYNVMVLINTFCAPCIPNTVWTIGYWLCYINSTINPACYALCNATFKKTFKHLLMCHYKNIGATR
It is filed as cell membranes, CHO-K1, Membrane.

The target of series [5] is Kappa-type opioid receptor (Homo sapiens, UniProt P41145). The series can be described thus: DRUGMATRIX: Opiate kappa (OP2, KOP) radioligand binding (ligand: [3H] Diprenorphine). It is filed as cell membranes, HEK293, Membrane. The settings on record: hek293; Not Active = under 50% inhibition at 10 µM.
The next series addresses Cytochrome P450 2D6 (Homo sapiens, UniProt P10635). The conditions noted are these: bti-tn-5b1-4.

One may read the IC50 as the concentration that inhibits the measured activity by half. The term Ki denotes a dissociation constant, usually derived from enzyme kinetics or from competition with a known ligand.

Sequence of Kappa-type opioid receptor (P41145 whole entry): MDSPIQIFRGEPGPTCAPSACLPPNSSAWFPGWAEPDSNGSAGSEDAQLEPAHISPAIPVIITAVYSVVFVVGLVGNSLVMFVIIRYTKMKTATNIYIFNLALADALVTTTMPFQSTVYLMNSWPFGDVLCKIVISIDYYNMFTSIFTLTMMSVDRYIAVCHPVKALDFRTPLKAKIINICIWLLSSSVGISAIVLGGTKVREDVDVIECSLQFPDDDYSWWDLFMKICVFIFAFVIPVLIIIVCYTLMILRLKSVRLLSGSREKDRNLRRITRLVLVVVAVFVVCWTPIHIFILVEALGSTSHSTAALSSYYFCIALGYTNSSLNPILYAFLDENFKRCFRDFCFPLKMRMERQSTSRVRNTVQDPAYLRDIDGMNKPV
Sequence of Prostaglandin G/H synthase 1 (P23219 whole entry): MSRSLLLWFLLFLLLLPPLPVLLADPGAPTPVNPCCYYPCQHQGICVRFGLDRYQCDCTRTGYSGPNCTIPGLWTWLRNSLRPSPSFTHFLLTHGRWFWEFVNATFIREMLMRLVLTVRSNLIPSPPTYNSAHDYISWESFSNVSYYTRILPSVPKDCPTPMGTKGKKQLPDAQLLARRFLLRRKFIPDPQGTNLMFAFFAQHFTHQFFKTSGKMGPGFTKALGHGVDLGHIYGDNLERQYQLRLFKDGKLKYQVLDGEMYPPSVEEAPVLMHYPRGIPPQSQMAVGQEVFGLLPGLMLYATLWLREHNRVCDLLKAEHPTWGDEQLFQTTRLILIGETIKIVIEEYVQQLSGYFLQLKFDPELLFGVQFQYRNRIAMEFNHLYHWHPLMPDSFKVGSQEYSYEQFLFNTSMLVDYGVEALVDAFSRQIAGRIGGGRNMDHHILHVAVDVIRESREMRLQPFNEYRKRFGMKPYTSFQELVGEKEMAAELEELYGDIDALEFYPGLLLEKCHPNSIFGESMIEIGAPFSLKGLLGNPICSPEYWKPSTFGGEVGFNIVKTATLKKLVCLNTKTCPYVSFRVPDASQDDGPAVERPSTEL
Sequence of Cytochrome P450 2D6 (P10635 whole entry): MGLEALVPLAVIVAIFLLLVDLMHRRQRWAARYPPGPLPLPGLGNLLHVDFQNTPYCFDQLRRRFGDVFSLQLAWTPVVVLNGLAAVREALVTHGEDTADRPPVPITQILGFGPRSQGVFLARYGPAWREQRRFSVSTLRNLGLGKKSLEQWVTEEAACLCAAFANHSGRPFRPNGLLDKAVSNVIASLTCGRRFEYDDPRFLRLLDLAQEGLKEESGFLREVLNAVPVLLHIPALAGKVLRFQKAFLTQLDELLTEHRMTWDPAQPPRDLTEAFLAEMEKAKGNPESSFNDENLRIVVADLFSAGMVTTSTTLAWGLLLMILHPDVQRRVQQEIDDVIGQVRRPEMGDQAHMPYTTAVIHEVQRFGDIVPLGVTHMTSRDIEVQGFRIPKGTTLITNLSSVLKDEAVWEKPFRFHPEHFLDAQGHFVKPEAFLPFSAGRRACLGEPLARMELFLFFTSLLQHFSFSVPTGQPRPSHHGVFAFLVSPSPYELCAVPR

Regarding `CO[C@H]1/C=C/O[C@@]2(C)Oc3c(C)c(O)c4c(O)c(c(/C=N/N5CCN(C)CC5)c(O)c4c3C2=O)NC(=O)/C(C)=C\C=C\[C@H](C)[C@H](O)[C@@H](C)[C@@H](O)[C@@H](C)[C@H](OC(C)=O)[C@@H]1C` [RIFAMPIN], the IC50 entry (in series [1]; in series [2] (sf9); in series [3] (platelet); in series [4] (cho-k1); in series [5]; at Cytochrome P450 2D6) was “Not Active” throughout. Moreover, the Ki result on Cytochrome P450 2D6 is listed as “Not Active”.
As for `C=CCC1(C(C)CCC)C(=O)NC(=O)NC1=O` (stereo not drawn) [SECOBARBITAL], the IC50 result (in series [1]; in series [2] (sf9); in series [3] (platelet); in series [4] (cho-k1); in series [5]; against Cytochrome P450 2D6) was “Not Active” each time. Further, the Ki result on Cytochrome P450 2D6 is listed as “Not Active”.
On to `C[C@@H]1CN(c2c(F)c(N)c3c(=O)c(C(=O)O)cn(C4CC4)c3c2F)C[C@H](C)N1` [SPARFLOXACIN], for which the IC50 entry (in series [1]; in series [2] (sf9); in series [3] (platelet); in series [4] (cho-k1); in series [5]; against Cytochrome P450 2D6) was “Not Active” each time. For the same compound, at Cytochrome P450 2D6, the Ki result is listed as “Not Active”.
With `Cc1noc(NS(=O)(=O)c2ccc(N)cc2)c1C` [SULFISOXAZOLE], the IC50 result (in series [1]; in series [2] (sf9); in series [3] (platelet); in series [4] (cho-k1); in series [5]; against Cytochrome P450 2D6) was “Not Active” in each case. Further, the inhibition constant Ki entry at Cytochrome P450 2D6 is “Not Active”.
For `CC(C)N1CCN(c2ccc(OCC3COC(Cn4cncn4)(c4ccc(Cl)cc4Cl)O3)cc2)CC1` (stereo not drawn) [TERCONAZOLE], the IC50 was 13.3 µM in series [1] (read-out: IC50); 0.418 µM in series [2] (read-out: IC50); “Not Active” in series [3] (platelet); 12.9 µM in series [4] (read-out: IC50); “Not Active” in series [5]; “Not Active” on Cytochrome P450 2D6. For the same compound, the inhibition constant (Ki) in series [1] (read-out: Ki) is 5.37 µM; in series [2] (read-out: Ki) it was 0.061 µM; in series [4] (read-out: Ki), 4.59 µM; at Cytochrome P450 2D6, “Not Active”.
As for `Nc1nc2nc[nH]c2c(=S)[nH]1` [THIOGUANINE], the IC50 result in series [1] is “Not Active”; in series [2] (sf9), “Not Active”; in series [3] (read-out: IC50), 0.601 µM; in series [4] (cho-k1), “Not Active”; in series [5] it was “Not Active”; against Cytochrome P450 2D6 it was “Not Active”. Moreover, the Ki entry at Cytochrome P450 2D6 was “Not Active”.
`Cc1cccc(N(C)C(=S)Oc2ccc3ccccc3c2)c1` [TOLNAFTATE]: the IC50 entry (in series [1]; in series [2] (sf9); in series [3] (platelet); in series [4] (cho-k1); in series [5]; on Cytochrome P450 2D6) was “Not Active” throughout. Moreover, on Cytochrome P450 2D6, the Ki result is “Not Active”.
On to `NC[C@H]1CC[C@H](C(=O)O)CC1` [TRANEXAMIC ACID], for which the IC50 entry (in series [1]; in series [2] (sf9); in series [3] (platelet); in series [4] (cho-k1); in series [5]; at Cytochrome P450 2D6) was “Not Active” each time. For the same compound, the Ki entry on Cytochrome P450 2D6 is “Not Active”.
Take `CC1(C)O[C@@H]2C[C@H]3[C@@H]4CCC5=CC(=O)C=C[C@]5(C)[C@@]4(F)[C@@H](O)C[C@]3(C)[C@]2(C(=O)CO)O1` [TRIAMCINOLONE ACETONIDE]: the IC50 result (in series [1]; in series [2] (sf9); in series [3] (platelet); in series [4] (cho-k1); in series [5]; against Cytochrome P450 2D6) was “Not Active” each time. In addition, the Ki result on Cytochrome P450 2D6 is given as “Not Active”.
On to `NS(=O)(=O)c1cc2c(cc1Cl)NC(C(Cl)Cl)NS2(=O)=O` (stereo not drawn) [TRICHLORMETHIAZIDE], for which the IC50 entry (in series [1]; in series [2] (sf9); in series [3] (platelet); in series [4] (cho-k1); in series [5]; at Cytochrome P450 2D6) was “Not Active” throughout. Further, on Cytochrome P450 2D6, the Ki entry was “Not Active”.
With `Cc1c(C)c2c(c(C)c1O)CCC(C)(COc1ccc(CC3SC(=O)NC3=O)cc1)O2` (stereo not drawn) [TROGLITAZONE], the half-maximal inhibitory concentration (IC50) result (in series [1]; in series [2] (sf9); in series [3] (platelet); in series [4] (cho-k1); in series [5]; against Cytochrome P450 2D6) was “Not Active” each time. For the same compound, the inhibitory constant (Ki) entry at Cytochrome P450 2D6 was “Not Active”.
As to `N[C@@H]1[C@H]2CN(c3nc4c(cc3F)c(=O)c(C(=O)O)cn4-c3ccc(F)cc3F)C[C@@H]12` [TROVAFLOXACIN], the IC50 result (in series [1]; in series [2] (sf9); in series [3] (platelet); in series [4] (cho-k1); in series [5]; at Cytochrome P450 2D6) was “Not Active” throughout. Also, the inhibition constant (Ki) result at Cytochrome P450 2D6 is given as “Not Active”.
Regarding `N#CC(C#N)=Cc1ccc(O)c(O)c1` [TYRPHOSTIN 23], the IC50 entry (in series [1]; in series [2] (sf9); in series [3] (platelet); in series [4] (cho-k1); in series [5]; at Cytochrome P450 2D6) was “Not Active” in each case. Further, the Ki entry at Cytochrome P450 2D6 is “Not Active”.
For `CC[C@]1(O)C[C@H]2CN(CCc3c([nH]c4ccccc34)[C@@](C(=O)OC)(c3cc4c(cc3OC)N(C=O)[C@H]3[C@@](O)(C(=O)OC)[C@H](OC(C)=O)[C@]5(CC)C=CCN6CC[C@]43[C@@H]65)C2)C1` [VINCRISTINE], the 50% inhibitory concentration (IC50) result (in series [1]; in series [2] (sf9); in series [3] (platelet); in series [4] (cho-k1); in series [5]; against Cytochrome P450 2D6) was “Not Active” in each case. In addition, at Cytochrome P450 2D6, the Ki entry is given as “Not Active”.
In the case of `CCCOc1ccccc1-c1nc2nn[nH]c2c(=O)[nH]1` [ZAPRINAST], the IC50 entry (in series [1]; in series [2] (sf9); in series [3] (platelet); in series [4] (cho-k1); in series [5]; on Cytochrome P450 2D6) was “Not Active” throughout. Also, the Ki entry at Cytochrome P450 2D6 is “Not Active”.
